# pKi: −log10 of the molar value. Read-outs that look alike come from different tables or passages of the source.
# Experiments:
# human NK(1) receptor = human NK(1) receptor (Homo sapiens, UniProt P25103); details: cited from earlier work
# [1] = test system: canine neutrophils stimulated by platelet activating factor; experiment: In vitro superoxide anion generation by PAF-activated neutrophils; assay type: cell-based; details: PAF 100 nmol; 0.1 to 10 uM L, 0.1 to 100 uM ADO; synergy at 1 uM, 5 uM and 10 uM
# Protocol: PMNs were isolated using the Ficoll-Pacque (Sigma Chemical, St. Louis, Mo.) technique. The cells were adjusted to ˜9×10^7 cells/ml. […] Superoxide anion (—O.2) production by neutrophils stimulated by platelet activating factor (100 nmol) were determined by measuring the superoxide dismutase-inhibitable reduction of ferricytochrome c to ferrocytochrome c spectrophotometrically at 550 nm using a V-Max Microtiter Plate Reader (Molecular Devices, Palo Alto, Calif.). […] Concentrations indicated are final concentrations in each cuvette.
# [2] = i.v., cited from earlier work
# in vivo rabbit model = details: reduced MAP similar to CCPA; cited from earlier work
# [3] = test system: A-V nodal and SA pacemakers; details: cited from earlier work
# Sequence of human NK(1) receptor (P25103 whole entry): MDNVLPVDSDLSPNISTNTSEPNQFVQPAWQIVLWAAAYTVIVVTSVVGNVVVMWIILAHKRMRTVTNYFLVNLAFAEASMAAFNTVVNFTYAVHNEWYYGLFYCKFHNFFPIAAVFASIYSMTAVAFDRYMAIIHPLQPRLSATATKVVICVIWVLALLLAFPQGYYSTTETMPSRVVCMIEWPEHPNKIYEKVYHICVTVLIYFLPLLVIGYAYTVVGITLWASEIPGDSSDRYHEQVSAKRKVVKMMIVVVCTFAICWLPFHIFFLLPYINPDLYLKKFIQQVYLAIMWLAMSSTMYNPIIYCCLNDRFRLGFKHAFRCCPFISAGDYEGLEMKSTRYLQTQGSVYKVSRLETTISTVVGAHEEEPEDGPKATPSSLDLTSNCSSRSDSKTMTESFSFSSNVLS
SMILES,superoxide anion generation [1],effect on infarct size (in vivo rabbit model),other results
"Cc1cccc(C)c1NC(=O)C[C@H]1CCN(C(=O)c2cc(C(F)(F)F)cc(C(F)(F)F)c2)[C@@H](Cc2ccccc2)C1.O=C(O)C[C@H](O)C(=O)O (relative stereo) [R116301, (2R-trans)-4-[1-[3,5-bis(trifluoromethyl)benzoyl]-2-(phenylmethyl)-4-piperidinyl]-N-(2,6-dimethylphenyl)-1-acetamide (S)-Hydroxybutanedioate]",,,pKi (human NK(1) receptor): 9.35; selectivity toward NK(2) and NK(3) receptors (human NK(1) receptor): over 200 fold
"CCN(CC)CC(=O)Nc1c(C)cccc1C [Lido-only, lidocaine]",reduce superoxide anion generation,,maximum safe dose ([2]; with epinephrine): ~7 mg/kg; maximum safe dose ([2]; without epinephrine): approximately 4 mg/kg
"CCNC(=O)[C@H]1O[C@@H](n2cnc3c(N)ncnc32)[C@H](O)[C@@H]1O [NECA, 5′-N-ethyl-carboxamindoadenosine]",,did not change infarct size,
"CCCCC#Cc1nc(N)c2ncn([C@@H]3O[C@H](C(=O)NCC)[C@@H](O)[C@H]3O)c2n1 [2HE-NECA, 2-hexynyl-5′-N-ethyl-carboxamindoadenosine]",,did not change infarct size,
"Nc1ncnc2c1ncn2[C@@H]1O[C@H](CO)[C@@H](O)[C@H]1O [Ado-only, adenosine]",reduce superoxide anion generation,,effectiveness in slowing the conductance of A-V nodal relative to SA pacemakers [3]: 30 times
CC(C)NCC(O)COc1ccc(CC(N)=O)cc1 (stereo not shown) [atenolol],,did not change infarct size,
